From patent publication US20230165252A1, “ACTIVE COMPOUND COMBINATIONS” (Bayer Aktiengesellschaft, priority 2020, published 2023)
Values joined by “and” are separate entries in the source; they are usually repeats but may differ in a detail not shown here. Equal values may be shown once. Read-outs that look alike come from different tables or passages of the source.

What was measured:
Type in all cases: cell-based
[1] = system: Cordana musae; assay: in vitro-Test with Cordana musae (microtiter growth inhibition); conditions: single substance; for inhibition of growth at 0.8 ppm / inhibition of growth at 20 ppm / inhibition of growth at 4 ppm: Neocordana musae, read-out: Efficacy
Procedure: (§1) The degree of efficacy expressed in % is denoted: 0% means an efficacy, which corresponds to that of the control, while an efficacy of 100% means that no disease is observed.
(§2) If the actual fungicidal activity exceeds the calculated value, then the activity of the combination is super-additive, i.e. a synergistic effect exists. In this case, the efficacy, which was actually observed, must be greater than the value for the expected efficacy (E), that was calculated from the abovementioned formula.
(§3) Example: In Vitro-Test with Fungal Microorganisms
(§4) Wells of 96-well microtiter plates are filled with 10 μl of a preparation of test compound or compound combination in methanol+emulsifier alkylaryl-polyglycol-ether. Thereafter, the solvent is evaporated in a hood. At the next step, 100 μl of liquid potato dextrose medium is given into each well, that has been amended with an appropriate concentration of spores or mycelium suspension of the test fungus.
(§5) With the aid of a photometer, the extinction in all wells is measured at the wavelength of 620 nm.
(§6) The microtiter plates are incubated at 20° C. and 85% relative humidity. The inhibition of growth is determined again photometrically 3-5 days after the application. Efficacy is calculated in relation to the untreated control, 0% efficacy means fungal growth as high as in untreated control while 100% efficacy means no fungal growth is measured.

[2] = system: Fusarium culmorum; assay: in vitro-Test with Fusarium culmorum (microtiter growth inhibition); conditions: for inhibition of growth at 0.8 ppm / inhibition of growth at 4 ppm / inhibition of growth at 20 ppm: Fusarium culmorum, read-out: Efficacy
Procedure: as §1, §2, §3, §4, §5, §6

[3] = system: Alternaria alternate; assay: in vitro-Test with Alternaria alternate (microtiter growth inhibition); conditions: for inhibition of growth at 20 ppm / inhibition of growth at 0.8 ppm / inhibition of growth at 4 ppm: Alternaria
Procedure: as §1, §2, §3, §4, §5, §6

[4] = system: Cercospora beticola; assay: in vitro-Test with Cercospora beticola (microtiter growth inhibition); conditions: alone; for inhibition of growth at 4 ppm / inhibition of growth at 20 ppm: Cercospora beticola, read-out: Efficacy %
Procedure: as §1, §2, §3, §4, §5, §6

[5] = system: Diaporthe citri; assay: in vitro-Test with Diaporthe citri (microtiter growth inhibition); conditions: applied alone
Procedure: as §2, §3, §4, §5, §6

[6] = applied alone, read-out: Efficacy
[7] = 4 ppm, alone, read-out: Efficacy %
[8] = Diaporthe citri, read-out: Efficacy

COc1cc(C)c(C(=O)c2c(OC)ccc(Br)c2C)c(OC)c1OC [Compound 15.016, metrafenone]
inhibition of growth at 0.8 ppm ([1]; 0.8 ppm): 0% | inhibition of growth at 20 ppm [1]: 22% | inhibition of growth at 0.8 ppm [2]: 0% | inhibition of growth at 4 ppm [2]: 0% | inhibition of growth at 20 ppm [2]: 0%

O=C1C2CC=CCC2C(=O)N1SC(Cl)(Cl)Cl (stereo not drawn) [captan]
inhibition of growth at 20 ppm ([3]; alone, read-out: Efficacy %): 83% | inhibition of growth at 0.8 ppm [3, 6]: 10% | inhibition of growth at 20 ppm [3, 6]: 100% | Efficacy ([3]; applied alone, 4 ppm): 100% | inhibition of growth at 4 ppm [4]: 73% | inhibition of growth at 4 ppm [1]: 2% | Efficacy ([1]; 0.8 ppm): 0% | inhibition of growth at 0.8 ppm [2]: 2% | inhibition of growth at 20 ppm [2]: 5%

N#Cc1sc2c(=O)c3ccccc3c(=O)c=2sc1C#N [dithianon]
inhibition of growth at 0.8 ppm ([3]; alone, read-out: Efficacy %): 0% | inhibition of growth at 4 ppm [3, 7]: 71% | inhibition of growth at 20 ppm ([3]; alone, read-out: Efficacy %): 100% | inhibition of growth at 4 ppm [4]: 99% | inhibition of growth at 20 ppm [4]: 98% | inhibition of growth at 0.8 ppm ([1]; 0.8 ppm): 9% | inhibition of growth at 4 ppm [1]: 99% | inhibition of growth at 20 ppm [1]: 98% | inhibition of growth at 0.8 ppm ([5]; Diaporthe citri, 0.8 ppm, read-out: Efficacy): 34% | inhibition of growth at 4 ppm [5, 8]: 98% | inhibition of growth at 20 ppm [5, 8]: 97% | inhibition of growth at 0.8 ppm [2]: 0% | inhibition of growth at 4 ppm [2]: 39% | inhibition of growth at 20 ppm [2]: 100%

COc1ccnc(C(=O)N[C@H]2COC(=O)[C@H](Cc3ccccc3)[C@@H](OC(=O)C(C)C)[C@H](C)OC2=O)c1OCOC(=O)C(C)C [fenpicoxamid]
Efficacy % ([3]; 0.2 ppm, alone): 10% and 4% | Efficacy % ([3]; 5.0 ppm, alone): 80% and 81% | Efficacy ([3]; applied alone, 5.0 ppm): 64% | Efficacy % ([4]; 1.0 ppm): 74% and 58% and 42% | Efficacy % ([4]; 5.0 ppm): 86% and 78% | Efficacy ([1]; 1.0 ppm): 50% | Efficacy ([1]; 5.0 ppm): 74% | Efficacy ([5]; 0.04 ppm): 0% | Efficacy ([5]; 0.2 ppm): 5% and 0% | Efficacy ([5]; 1.0 ppm): 87% and 73% and 75% | Efficacy ([5]; 5.0 ppm): 94% and 93% and 90% | Efficacy ([2]; 0.04 ppm): 0% | Efficacy ([2]; 0.2 ppm): 0% | Efficacy ([2]; 1.0 ppm): 0% | Efficacy ([2]; 5.0 ppm): 0%

O=C(NCCc1ncc(C(F)(F)F)cc1Cl)c1ccccc1C(F)(F)F [fluopyram]
inhibition of growth at 0.8 ppm ([3]; alone, read-out: Efficacy %): 77% | inhibition of growth at 4 ppm [3, 7]: 94% | inhibition of growth at 0.8 ppm [3, 6]: 81% | inhibition of growth at 4 ppm ([3]; applied alone, 4 ppm, read-out: Efficacy): 85% | inhibition of growth at 20 ppm [3, 6]: 99% | inhibition of growth at 20 ppm [4]: 17% | inhibition of growth at 0.8 ppm ([1]; 0.8 ppm): 0% | inhibition of growth at 4 ppm [1]: 5% | inhibition of growth at 20 ppm [1]: 20% | inhibition of growth at 4 ppm [5, 8]: 0% | inhibition of growth at 20 ppm [5, 8]: 26% | inhibition of growth at 0.8 ppm [2]: 1% | inhibition of growth at 4 ppm [2]: 0% | inhibition of growth at 20 ppm [2]: 3%
